Assay results: patent US6362328B1, “Assays and probes with enzyme labels” (London Biotechnology Limited, priority 1996, dated 2002)

Tests used:
[1] = system: endogenous "FADPase" in the apoglucose oxidase; assay: Effect of p-nitrophenyl phosphate on background color generation in the absence of nuclease P1; format: biochemical; details: p-nitrophenyl phosphate at concentrations up to approximately 5 mM; no nuclease P1; FIG. 3
Procedure: (§1) The effect of the added p-nitrophenyl phosphate on the background color generation in the absence of nuclease P1 was also noted. This background is due to endogenous “FADPase” in the apoglucose oxidase used in the assay. At concentrations up to approximately 5 mM, added p-nitrophenyl phosphate has no effect on nuclease P1, but reduces the background signal by 80-100% (FIG. 3).

nuclease P1 [2] = biological target: T1, nuclease P1 (Penicillium citrinum, UniProt P24289); assay: Effect of p-nitrophenyl phosphate on the activity of nuclease P1; format: biochemical; design: purchased Sigma Chemical Company; details: p-nitrophenyl phosphate at concentrations up to approximately 5 mM; FIG. 3
T1 sequence (P24289 1-270): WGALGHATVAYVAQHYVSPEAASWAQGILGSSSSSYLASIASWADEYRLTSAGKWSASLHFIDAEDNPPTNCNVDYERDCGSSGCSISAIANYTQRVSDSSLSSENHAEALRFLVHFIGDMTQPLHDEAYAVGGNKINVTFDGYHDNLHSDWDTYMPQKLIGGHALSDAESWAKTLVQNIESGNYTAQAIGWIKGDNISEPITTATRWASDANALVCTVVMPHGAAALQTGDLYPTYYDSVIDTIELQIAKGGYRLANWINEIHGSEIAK
Procedure: as §1

nuclease P1 [3] = biological target: T1, nuclease P1; details: phosphate 0 to 10 mM; nuclease P1 at pH 6.5, alkaline phosphatase at pH 8.9; FIG. 2
Procedure: A solution of nuclease P1 standardized according to Example 1 was serially diluted in 50 mM citrate buffer adjusted to pH 6.5 with NaOH. The assay mixture contained 20 μM 3′FADP, 0.1 mM 4-aminoantipyrine, 2 mM DHSA, 1 μg horseradish peroxidase, 0.1 M glucose and 0.1 μM apoglucose oxidase in a total volume of 0.1 ml. The change in absorbance was monitored at 520 nm in a Dynatech MR7000 plate reader fitted with a thermostatically controlled plate holder set to 25° C.

[4] = Standardization of nuclease P1 (coupled NADH assay, absorbance at 340 nm); format: biochemical; details: 22.7 μM solution (1 mg in 1 ml water); 50 mM HEPES pH 7.2; molar extinction coefficient of 6220 for NADH assumed
Procedure: Nuclease P1 (1 mg; obtained from Sigma Chemical Company, batch no: 107F0799) was dissolved in 1 ml of water to give a concentration of 22.7 μM and stored at 4° C. The activity of this solution was assayed in the following mixture: 0.16 mM NADH, 1 mM ATP, 1 mM PEP, 1 mM MgSO4, 20 mM KCl, 0.5 mM adenosine 3′,5′-bisphosphate, 1 U pyruvate kinase, 1 U lactate dehydrogenase and 1 U myokinase in 50 mM HEPES buffer, pH 7.2, in a total volume of 1 ml.

O=[N+]([O-])c1ccc(OP(=O)(O)O)cc1 [p-nitrophenyl phosphate]
reduction of background signal [1]: 80-100%
effect on nuclease P1 activity (nuclease P1 [2]): no effect

phosphate
effect of phosphate on enzyme activity (nuclease P1 [3]): less of an effect on nuclease P1 than on alkaline phosphatase

B1: Nuclease P1: enzyme obtained from Sigma Chemical Company, used as enzyme label (protein, UniProt P24289 1-270, looked up)
Nuclease P1: T1 sequence (P24289 1-270)
activity of nuclease P1 solution [4]: 320 U/ml
